Tested on: GAS
Assay: time-dependent killing (bactericidal) assay
Type: cell-based, Streptococcus pyogenes
Conditions: 10× MIC; exponential phase GAS
Description: GAS grown to exponential phase was diluted to 10^5 CFUs ml^−1. […] A 100-µl aliquot was collected at each timepoint, cells were centrifuged and pellets were resuspended in 100 µl phosphate-buffered saline (PBS). Cells were serially diluted and plated on blood agar plates. After overnight incubation at 37 °C, CFUs were enumerated and reported as CFUs ml^−1. […] Bactericidal assays were performed in biological triplicate.

## CC1(C)S[C@@H]2[C@H](NC(=O)Cc3ccccc3)C(=O)N2[C@H]1C(=O)O [penicillin G]
  killing of GAS, in words: complete killing
